{"source": "patent US7763580B2", "about": "“Methods for treating conditions associated with the accumulation of excess extracellular matrix” (University of Utah Research Foundation, priority 1999, dated 2010)", "key": {"[1]": {"tested_on": "adult human mesangial cells", "assay": "Renin-induced TGFβ and fibronectin production by adult human mesangial cells (ELISA)", "format": "cell-based", "details": "10^−5 M inhibitor added at zero time with 10^−7 M human recombinant renin, adult cells, FIG. 7", "method": "Primary cultures of adult human mesangial cells were grown from human nephrectomy tissues using standard methods. Cells were passaged 4-7 times and then plated (3,000 cell/cm^2) in 12 well plates in 2 ml of medium (Mesangial Basal Medium (Clonetics Corp.) containing 5% FCS, 10 μg/ml penicillin and 100 μg/ml streptomycin) and allowed to grow to 70% confluency for 48 hours at 37EC, 5% CO2. Cultures were washed three times using sterile phosphate buffered saline at room temperature and then 2 ml/well of serum free MBM medium to induce quiescence. After 48 hours, the serum-free medium was removed and 2 ml/well of fresh serum-free medium was added for 24 hours. Human recombinant renin (HrRenin, Hoffman-La Roche Ltd., Basel, Switzerland) in concentrations from 10^−6 to 10^−12 M was added to each well for 24 hours. A blank (no HrRenin) was used as a control. Cells and supernatants were harvested by centrifugation after 24 hrs of culture and frozen at ^−70EC until analysis.\nThe total production and release of TGFβ into the culture supernatant was measured using an ELISA kit (R & D Systems). Induction of the matrix protein fibronectin (Fn) in the supernatant was measured using anti-fibronectin antibodies in an ELISA to provide further confirmation of induction of TGFβ. Renin-induced induction of TGFβ, fibronectin and PAI-1 mRNA were measured over time using semi-quantitative RT-PCR in a multiplex system where multiple cDNAs are amplified simultaneously according to Dostal et al., Anal. Biochem. 223:239-250 (1994), incorporated by reference herein Determinations were done in triplicate mesangial cell cultures.\nRenin inhibitor Ro42-5892 (Hoffman-LaRoche, Basel, Switzerland), Losartan™ (Merck Pharmaceuticals, West Point, Pa.), Enalapril™ (Sigma Chemical Co., St. Louis, Mo., Prod. No. E6888), or TGFβ1 neutralizing antibody (R & D Systems) were added in the amounts indicated below to separate wells in triplicate to block the renin cascade at different sites after stimulation by renin: • 10^−5 M Renin Inhibitor R042-5892 (Hoffman-LaRoche) • 10^−5 M Enalapril™ (Sigma Chemical Co., St. Louis, Mo.) • 10^−5 M Losartan™ (Merck Pharmaceuticals, West Point, Pa.) • Controls included neutralizing antibody to TGFβ (ATG) and control IgG (TgG)\nThese inhibitors were added at zero time with 10^−7 M human recombinant renin (Hoffman-LaRoche)."}, "[2]": {"tested_on": "anti-Thy 1 glomerulonephritis", "assay": "Glomerular mRNA expression (Northern hybridization)", "format": "in vivo, Sprague Dawley rats", "details": "enalapril alone", "method": "These experiments were performed on male Sprague Dawley rats (200-250 g) obtained from the Sasco colony of Charles River Laboratories (Wilmington, Mass., USA). Animal housing and care were in accordance with the NIH Guide for the Care and Use of Laboratory Animals, NIH Publication No. 85-23, 1985. Animals were fed a normal protein diet (22% protein, Teklad No. 86 550, Teklad Premier Laboratory Diets, Madison, Wis., USA). Glomerulonephritis was induced by tail vein injection of 2.25 mg/Kg of the monoclonal anti-Thy 1.1 antibody OX-7 (NCCC, Biovest International Inc, Minneapolis, Minn., USA). OX-7 binds to a Thy 1-like epitope on the surface of mesangial cells causing complement-dependent cell lysis followed by fibrotic tissue repair (Bagchus et al., Lab Invest. 55:680-687 (1986)). Control animals were injected with similar volumes of phosphate-buffered saline (PBS). Groups of 8 rats were assigned and treated as outlined in Table 2. […] Changes in mRNA levels were determined by first correcting for the densitometric intensity of 18S for each sample. For comparison, this ratio was set at unity for normal control samples and other lanes on the same gel were expressed as fold increases over this value. […] The percent reduction in disease severity in a treated group was calculated as:"}}}
{"smiles": "CCOC(=O)[C@H](CCc1ccccc1)N[C@@H](C)C(=O)N1CCC[C@H]1C(=O)O", "note": "[enalapril]", "values": [{"measurement": "renin-induced increase in TGFβ production", "setting": "[1]", "value": "does not reduce the renin-induced increase in TGFβ production"}, {"measurement": "reduction of TGF-β1 mRNA", "setting": "[2]", "value": 29, "unit": "%"}]}
